Assay [1] has as its target T1, human progesterone receptor A (Homo sapiens, UniProt P06401).
T1 construct: expressed in transfected cells; host or cells: SK-N-MC human neuroblastoma cells, stably transfected with pRChPR-A-neo and pMMTV-LUC
T1 sequence (P06401 1-769 isoform P06401-2): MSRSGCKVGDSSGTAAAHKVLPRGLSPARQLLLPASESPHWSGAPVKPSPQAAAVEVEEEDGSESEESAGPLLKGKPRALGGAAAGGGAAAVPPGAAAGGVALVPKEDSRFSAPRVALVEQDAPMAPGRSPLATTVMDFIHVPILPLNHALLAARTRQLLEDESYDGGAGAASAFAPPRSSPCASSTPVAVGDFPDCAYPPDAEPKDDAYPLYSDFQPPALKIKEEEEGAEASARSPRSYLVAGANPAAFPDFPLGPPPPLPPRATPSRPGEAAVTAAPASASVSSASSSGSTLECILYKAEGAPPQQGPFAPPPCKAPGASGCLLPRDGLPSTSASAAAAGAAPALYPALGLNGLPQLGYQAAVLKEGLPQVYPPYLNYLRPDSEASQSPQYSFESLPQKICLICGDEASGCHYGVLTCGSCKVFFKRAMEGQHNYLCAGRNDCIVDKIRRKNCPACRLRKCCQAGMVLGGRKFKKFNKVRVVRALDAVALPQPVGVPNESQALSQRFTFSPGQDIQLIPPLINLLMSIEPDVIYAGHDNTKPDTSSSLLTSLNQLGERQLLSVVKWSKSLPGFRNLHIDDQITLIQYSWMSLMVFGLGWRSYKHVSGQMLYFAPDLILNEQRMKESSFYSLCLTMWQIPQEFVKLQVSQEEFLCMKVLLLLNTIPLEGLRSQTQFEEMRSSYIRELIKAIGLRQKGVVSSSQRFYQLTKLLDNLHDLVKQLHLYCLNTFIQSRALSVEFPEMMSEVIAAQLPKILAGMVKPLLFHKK
The experiment in a line: Progesterone receptor-antagonistic action in stably transfected SK-N-MC cells, PR-A, MMTV-LUC reporter. Type of assay: cell-based. The conditions noted are these: read-out: IC50 PR-A. Here is the method:
(§1) Determination of Progesterone Receptor-Antagonistic Action in Stable Transfectants of Human Neuroblastoma Cells (SK-N-MC Cells) with the Human Progesterone a or Progesterone B Receptor and an MN-LUC Reporter Construct
(§2) SK-N-MC cells (human neuroblastoma cells) which have been stably transfected with plasmids expressing the human progesterone receptor B (pRChPR-B-neo) or the human progesterone receptor A (pRChPR-A-neo) and a reporter construct (pMMTV-LUC) were incubated for 24 hours either in the absence (negative control) or in the presence of ascending amounts of the particular test compound (0.01 nmol/l, 0.1 nmol/l, 1 nmol/l, 10 nmol/l, 100 nmol/l and […]), in order to determine the agonistic efficacy. As a positive control of the reporter gene induction, the cells were treated with the synthetic gestagen promegestone (0.01 nmol/l, 0.1 nmol/l, 1 nmol/l, 10 nmol/l, 100 nmol/l and […]). To determine the antagonistic activity, the cells were treated with 0.1 nmol/l promegestone and additionally with ascending amounts of the particular test compound (0.01 nmol/l, 0.1 nmol/l, 1 nmol/l, 10 nmol/l, 100 nmol/l and […]). The activity of the reporter gene LUC (LUC=luciferase) was determined in the cell lysates and measured as RLU (relative light units). All measurements are reported as % efficacy and as EC50 and IC50 concentrations.

Assay [2] concerns the target T2, human progesterone receptor B (Homo sapiens, UniProt P06401).
T2 construct: expressed in transfected cells; host or cells: SK-N-MC human neuroblastoma cells, stably transfected with pRChPR-B-neo and pMMTV-LUC
T2 sequence (P06401 1-933): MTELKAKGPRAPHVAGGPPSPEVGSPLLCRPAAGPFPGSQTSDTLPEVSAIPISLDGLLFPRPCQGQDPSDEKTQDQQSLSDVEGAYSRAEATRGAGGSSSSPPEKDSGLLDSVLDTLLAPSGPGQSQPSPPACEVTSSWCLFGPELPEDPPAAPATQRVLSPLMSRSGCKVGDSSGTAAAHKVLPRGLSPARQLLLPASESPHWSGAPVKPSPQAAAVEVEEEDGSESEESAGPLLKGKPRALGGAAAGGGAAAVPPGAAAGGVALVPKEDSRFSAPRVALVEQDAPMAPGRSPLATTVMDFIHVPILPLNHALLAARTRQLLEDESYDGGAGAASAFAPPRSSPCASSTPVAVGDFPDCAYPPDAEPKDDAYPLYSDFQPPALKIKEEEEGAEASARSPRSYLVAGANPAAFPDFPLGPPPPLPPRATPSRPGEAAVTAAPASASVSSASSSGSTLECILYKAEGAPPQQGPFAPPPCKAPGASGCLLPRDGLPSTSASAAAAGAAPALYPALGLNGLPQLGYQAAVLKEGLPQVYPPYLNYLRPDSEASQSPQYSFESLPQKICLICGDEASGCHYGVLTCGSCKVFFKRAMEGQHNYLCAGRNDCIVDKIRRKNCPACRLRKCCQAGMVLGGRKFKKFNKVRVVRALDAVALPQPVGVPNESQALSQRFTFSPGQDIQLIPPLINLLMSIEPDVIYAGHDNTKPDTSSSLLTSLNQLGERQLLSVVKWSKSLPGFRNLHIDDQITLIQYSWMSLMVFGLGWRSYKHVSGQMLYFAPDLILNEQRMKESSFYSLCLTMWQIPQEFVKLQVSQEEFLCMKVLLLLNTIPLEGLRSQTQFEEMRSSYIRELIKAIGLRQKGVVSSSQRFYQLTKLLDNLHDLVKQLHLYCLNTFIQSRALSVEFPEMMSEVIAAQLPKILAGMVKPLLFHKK
The experiment in a line: Progesterone receptor-antagonistic action in stably transfected SK-N-MC cells, PR-B, MMTV-LUC reporter. The following applies: read-out: IC50 PR-B. Type of assay: cell-based. Here is the method: as §1, §2

Take `CC(C)(O)C#Cc1ccc([C@H]2C[C@@]3(C)[C@@H](CC[C@@]3(O)C(F)(F)C(F)(F)F)[C@@H]3CCC4=CC(=O)CCC4=C32)cc1` [Example 21, (8S,11R,13S,14S,17S)-17-hydroxy-11-[4-(3-hydroxy-3-methylbut-1-ynyl)phenyl]-13-methyl-17-pentafluoroethyl-1,2,6,7,8,11,12,13,14,15,16,17-dodecahydrocyclopenta[a]phenanthren-3-one]: the half-maximal inhibitory concentration (IC50) in assay [1] was found to be 0.36 nM; in assay [2] it was 1 nM.
For `C#Cc1ccc([C@H]2C[C@@]3(C)C(CC[C@@]3(O)C(F)(F)C(F)(F)F)C3CCC4=CC(=O)CCC4=C32)cc1` (stereo partly drawn) [Example 22, (8S,11R,13S,14S,17S)-1′-(4-ethynylphenyl)-17-hydroxy-13-methyl-17-pentafluoroethyl-1,2,6,7,8,11,12,13,14,15,16,17-dodecahydrocyclopenta[a]phenanthren-3-one], in that order: 0.014 nM and 0.014 nM.
`C[C@]12C[C@H](c3ccc(C#CCN=[N+]=[N-])cc3)C3=C4CCC(=O)C=C4CC[C@H]3[C@@H]1CC[C@@]2(O)C(F)(F)C(F)(F)F` [Example 23, (8S,11R,13S,14S,17S)-11-[4-(3-azidoprop-1-yn-1-yl)phenyl]-17-hydroxy-13-methyl-17-pentafluoroethyl-1,2,6,7,8,11,12,13,14,15,16,17-dodecahydrocyclopenta[a]phenanthren-3-one]: the IC50 in assay [1] came to 0.2 nM; in assay [2], 0.3 nM.
For `C[C@]12C[C@H](c3ccc(C#C/C=N\OCc4ccccc4)cc3)C3=C4CCC(=O)C=C4CCC3C1CC[C@@]2(O)C(F)(F)C(F)(F)F` (stereo partly drawn) [Example 24B, (Z)-[4-((8S,11R,13S,14S,17S)-17-hydroxy-13-methyl-3-oxo-17-pentafluoroethyl-2,3,6,7,8,11,12,13,14,15,16,17-dodecahydro-1H-cyclopenta[a]phenanthren-1′-yl)phenyl]propynal O-benzyl oxime] the same measures were 0.1 nM and 0.1 nM.
For the compound `CCO/N=C\C#Cc1ccc([C@H]2C[C@@]3(C)C(CC[C@@]3(O)C(F)(F)C(F)(F)F)C3CCC4=CC(=O)CCC4=C32)cc1` (stereo partly drawn) [Example 25B, (Z)-[4-((8S,11R,13S,14S,17S)-17-hydroxy-13-methyl-3-oxo-17-pentafluoroethyl-2,3,6,7,8,11,12,13,14,15,16,17-dodecahydro-1H-cyclopenta[a]phenanthren-1′-yl)phenyl]propynal O-ethyl oxime], the IC50 in assay [1] and in assay [2] was 0.09 nM throughout.
`Cc1noc(C)c1NC(=O)NCC#Cc1ccc([C@H]2C[C@@]3(C)C(CC[C@@]3(O)C(F)(F)C(F)(F)F)C3CCC4=CC(=O)CCC4=C32)cc1` (stereo partly drawn) [Example 28, 1-(3,5-dimethylisoxazol-4-yl)-3-{3-[4-((8S,11R,13S,14S,17S)-17-hydroxy-13-methyl-3-oxo-17-pentafluoroethyl-2,3,6,7,8,11,12,13,14,15,16,17-dodecahydro-1H-cyclopenta[a]phenanthren-1′-yl)phenyl]prop-2-ynyl}urea]: the IC50 was determined as 0.04 nM in assay [1] and 0.08 nM in assay [2].
For `CC(C)NC(=O)NCC#Cc1ccc([C@H]2C[C@@]3(C)[C@@H](CC[C@@]3(O)C(F)(F)C(F)(F)F)[C@@H]3CCC4=CC(=O)CCC4=C32)cc1` [Example 29, 1-{3-[4-((8S,11R,13S,14S,17S)-17-hydroxy-13-methyl-3-oxo-17-pentafluoroethyl-2,3,6,7,8,11,12,13,14,15,16,17-dodecahydro-1H-cyclopenta[a]phenanthren-11-yl)phenyl]prop-2-ynyl}-3-isopropylurea], in that order: 0.1 nM and 0.1 nM.
For `CCOC(=O)CCNC(=O)NCC#Cc1ccc([C@H]2C[C@@]3(C)C(CC[C@@]3(O)C(F)(F)C(F)(F)F)C3CCC4=CC(=O)CCC4=C32)cc1` (stereo partly drawn) [Example 30, 3-(3-{3-[4-((8S,11R,13S,14S,17S)-17-hydroxy-13-methyl-3-oxo-17-pentafluoroethyl-2,3,6,7,8,11,12,13,14,15,16,17-dodecahydro-1H-cyclopenta[a]phenanthren-1′-yl)phenyl]prop-2-ynyl}ureido)propionic acid ethyl ester] the same measures were 0.1 nM and 0.4 nM.
For `COc1ccc(NC(=O)NCC#Cc2ccc([C@H]3C[C@@]4(C)[C@@H](CC[C@@]4(O)C(F)(F)C(F)(F)F)[C@@H]4CCC5=CC(=O)CCC5=C43)cc2)cc1` [Example 32, 1-{3-[4-((8S,11R,13S,14S,17S)-17-hydroxy-13-methyl-3-oxo-17-pentafluoroethyl-2,3,6,7,8,11,12,13,14,15,16,17-dodecahydro-1H-cyclopenta[a]phenanthren-11-yl)phenyl]prop-2-ynyl}-3-(4-methoxyphenyl)urea], the IC50 in assay [1] worked out at 0.2 nM; in assay [2], 0.1 nM.
For the compound `CC(C)(C)c1ccc(NC(=O)NCC#Cc2ccc([C@H]3C[C@@]4(C)[C@@H](CC[C@@]4(O)C(F)(F)C(F)(F)F)[C@@H]4CCC5=CC(=O)CCC5=C43)cc2)cc1` [Example 33, 1-{3-[4-((8S,11R,13S,14S,17S)-17-hydroxy-13-methyl-3-oxo-17-pentafluoroethyl-2,3,6,7,8,11,12,13,14,15,16,17-dodecahydro-1H-cyclopenta[a]phenanthren-11-yl)phenyl]prop-2-ynyl}-3-(4-tert-butylphenyl)urea], the IC50 in assay [1] turned out to be 0.9 nM; in assay [2] it was 0.8 nM.
For `C[C@]12C[C@H](c3ccc(C#CCNC(=O)Nc4ccc(Cl)cc4)cc3)C3=C4CCC(=O)C=C4CC[C@H]3[C@@H]1CC[C@@]2(O)C(F)(F)C(F)(F)F` [Example 35, 1-{3-[4-((8S,11R,13S,14S,17S)-17-hydroxy-13-methyl-3-oxo-17-pentafluoroethyl-2,3,6,7,8,11,12,13,14,15,16,17-dodecahydro-1H-cyclopenta[a]phenanthren-11-yl)phenyl]prop-2-ynyl}-3-(4-chlorophenyl)urea] the same measures were 0.4 nM and 0.4 nM.
For `CCOC(=O)c1ccc(NC(=O)NCC#Cc2ccc([C@H]3C[C@@]4(C)C(CC[C@@]4(O)C(F)(F)C(F)(F)F)C4CCC5=CC(=O)CCC5=C43)cc2)cc1` (stereo partly drawn) [Example 37, 4-(3-{3-[4-((8S,11R,13S,14S,17S)-17-hydroxy-13-methyl-3-oxo-17-pentafluoroethyl-2,3,6,7,8,11,12,13,14,15,16,17-dodecahydro-1H-cyclopenta[a]phenanthren-1′-yl)phenyl]prop-2-ynyl}ureido)benzoic acid ethyl ester] the same measures were 0.1 nM and 0.4 nM.

Usually IC50 stands for the midpoint of a concentration-inhibition curve.

The record behind these values is patent publication US9102701B2, “17-hydroxy-17-pentafluoroethyl-estra-4,9(10)-diene-11-ethynylphenyl derivatives, methods for the production thereof and use thereof for treating diseases” (Bayer Intellectual Property GmbH, priority 2009, dated 2015).
